Converted amounts (≈) assume the structure as drawn. Where two headings read alike, the source gives them in different places.
How the values were obtained:
B. pseudomallei isolates = experiment: microbe, parasite or virus in culture; assay type: cell-based, Burkholderia pseudomallei
Burkholderia mallei = experiment: microbe, parasite or virus in culture; assay type: cell-based; conditions: for MIC: Burkholderia mallei
Bacillus anthracis = assay type: cell-based
[1] = system: B. pseudomallei strains 1026b and MSHR 305; assay type: cell-based, Burkholderia pseudomallei
Yersinia pestis = experiment: microbe, parasite or virus in culture; assay type: cell-based; conditions: for MIC: Yersinia pestis
[2] = read-out: MIC values (limit of detection) for OSCN^− with and without bLF
[3] = read-out: Minimal Inhibitory Concentration

N#CSO [OSCN^−, hypothiocyanite]
concentration of OSCN^− alone that inhibited all isolates (B. pseudomallei isolates): less than 63.3 μg/mL | inhibition of growth, overall result in words (B. pseudomallei isolates): effective in vitro to inhibit the growth | MIC (B. pseudomallei isolates; Burkholderia pseudomallei, NCTC13392, read-out: Minimal Inhibitory Concentration): 48.7 to 61.2 µg/mL (≈ 649 to 815 µM) | inhibition of growth, result in words (Burkholderia mallei): very effective against both strains tested | MIC (Burkholderia mallei; [2]): ≤ 25.9 µg/mL | MIC (Burkholderia mallei; [3]): ≤ 25.9 µg/mL | inhibition of growth, result in words (Bacillus anthracis): MICs at or below the detection limit | bacterial counts (limit of detection) through 6 h post inoculation [1]: < 33 CFU/mL | bactericidal effect, overall result in words [1]: substantial bactericidal effect | detectable CFUs from T2h to T6h [1]: no detectable CFUs | growth at T24h [1]: no MSHR 305 growth was detected | kill curve: evolution of microbial load during time [1]: immediate decrease of microbial load after 2 hours | reduction at T24h as compared with the untreated controls [1]: 1.5 to 2 log10 | reduction at T24h compared with the untreated control [1]: ~2.5 log10 | reduction of final bacterial concentration at T24h as compared with the untreated controls [1]: at least 1.5 log10 | inhibition of growth, result in words (Yersinia pestis): very effective against both strains tested | MIC (Yersinia pestis; [2]): ≤ 30.3 µg/mL | MIC (Yersinia pestis; [3]): ≤ 30.3 µg/mL

Reference: patent publication US20150224177A1 (priority 2014, published 2015)
